Tests used:
[1] = physiological environment, i.e. in the blood; cited from earlier work
[2] = target: T1, human IP1 receptor (Homo sapiens, UniProt P43119); assay: Inhibition of FLUO-BSA-ILO receptor binding/uptake with CAY10449 on 16HBE14o-cells (FACS); type: cell-based; conditions: 25 nM conjugate, increasing CAY10449 (15, 30, 150 μM) or excess of unconjugated ILO
T1 construct: The expression of IP1 receptor in human alveolar (A549) and bronchial (BEAS-2B, 16HBE14o-) epithelial cells was confirmed by Western blot analysis; endogenous in cells; host or cells: 16HBE14o- human bronchial epithelial cells
T1 sequence (P43119 whole entry): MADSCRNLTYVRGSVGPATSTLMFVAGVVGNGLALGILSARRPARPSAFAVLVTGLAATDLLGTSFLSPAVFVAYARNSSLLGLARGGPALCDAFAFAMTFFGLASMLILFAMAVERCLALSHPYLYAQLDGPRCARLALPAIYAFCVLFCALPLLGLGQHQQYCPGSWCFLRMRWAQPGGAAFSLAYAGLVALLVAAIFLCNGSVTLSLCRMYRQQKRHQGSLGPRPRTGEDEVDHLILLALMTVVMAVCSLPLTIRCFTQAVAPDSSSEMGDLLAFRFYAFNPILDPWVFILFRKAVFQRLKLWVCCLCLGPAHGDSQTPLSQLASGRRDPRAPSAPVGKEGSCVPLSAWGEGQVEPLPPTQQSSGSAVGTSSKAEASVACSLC
Procedure: 24-well plates were prepared as described above. CAY10449 was diluted in MEM to concentrations of 15 μM, 30 μM and 150 μM, and the mixtures were incubated at 37° C. for 15 min. […] The binding/uptake was measured using FACS.

[3] = system: A549 cells; assay: FACS receptor binding/uptake of fluorescein-BSA conjugates; type: cell-based, human; conditions: 0.5 μM conjugate, 4 h, 37° C.
Procedure: (§1) For the FACS measurement experiments, 100 000 cells/well were seeded in 24-well plates (TPP, Trasadingen, Switzerland) 24 hours before adding the conjugates. […] After the cells had been washed with PBS, the cells were removed from the wells by treatment with trypsin, and the FACS measurements were carried out using a Beckton-Dickinson FACS scan (San Jose, USA). For the confocal laser scanning microscopy, the experiments were carried out on slides with 4 chambers from BD Falcon Culture (BD Biosciences San Jose, USA) with 25 000 cells per chamber. The incubation of FLUO-BSA-ILO and FLUO-BSA was performed as described above. The cells were washed and fixed in 4% paraformaldehyde, and the nuclei were subsequently stained with 0.33 μM DAPI (4′,6-diamidino-2-phenylindole) and F-actin with Alexafluor® 568 Falloidin (Invitrogen GmbH, Karlsruhe, Germany) using standard protocols. The slides were covered with medium (Vectashield, Vector Laboratories Inc., Berlingame, USA), and images were taken with a confocal laser scanning microscope (Leica, Solms, Germany).

[4] = system: H441 cells; assay: as above; type: cell-based, human; conditions: 0.5 μM conjugate, 4 h, 37° C.
Procedure: as §1

[5] = system: 16HBE14o-cells; assay: as above; type: cell-based, human; conditions: 0.5 μM conjugate, 4 h, 37° C.
Procedure: as §1

[6] = system: BEAS-2B cells; assay: as above; type: cell-based, human; conditions: 0.5 μM conjugate, 4 h, 37° C.
Procedure: as §1

[7] = system: 16HBE14o-cells; assay: Confocal laser scanning microscopy of surface binding and intracellular uptake; type: cell-based, human; conditions: 0.5 μM conjugate
Procedure: as §1

Row | effect of competitor on number of fluorescence-positive cells and MFI [2] | Compound | half-life [1] | positive A549 cells [3] | positive cells (H441) [4] [%] | positive 16HBE14o-cells [5] | positive cells (BEAS-2B) [6] [%] | cell surface binding and intracellular uptake (confocal microscopy) [7]
1 |  | CCCCC[C@H](O)/C=C/[C@@H]1[C@H]2C/C(=C/CCCC(=O)O)O[C@H]2C[C@H]1O [prostacyclin] | only a few minutes |  |  |  |  | 
2 | significant dose-dependent reduction | CC(C)Oc1ccc(Cc2ccc(NC3=NCCN3)cc2)cc1 [CAY10449] |  |  |  |  |  | 
3 | no activity | FLUO-BSA: fluorescein-labeled bovine serum albumin, control without ligand |  | unspecific background binding | 9.1±1.9 | unspecific background binding | 13.7±1.2 | no uptake

From patent publication US10080804B2, “Conjugate with target-finding ligand and use thereof” (ethris GmbH, priority 2009, dated 2018)
